Results on 11 compounds are retold here after ChEMBL document CHEMBL1201862, “PubChem BioAssay data set” (2004).

Holding throughout (assay): NCI anticancer screen, dose series, 48 h
Assay [1] relates to A498.
Assay [2] has as its system CAKI-1.
The subject of assay [3] is CCRF-CEM.
The subject of assay [4] is COLO 205.
For assay [5], the system named is DU-145.
Assay [6] relates to IGROV-1.
The test system of assay [7] is KM12.
Assay [8] concerns MOLT-4.
The test system of assay [9] is OVCAR-3.
Assay [10] has as its system OVCAR-8.
Assay [11] relates to SF-295.
Assay [12] concerns SF-539.
The test system of assay [13] is SK-MEL-28.
Assay [14] deals with SK-OV-3.
The test system of assay [15] is UACC-62.
Assay [16] relates to EKVX.
The test system of assay [17] is Malme-3M.
The test system of assay [18] is OVCAR-5.
For assay [19], the system named is TK-10.
Assay [20] relates to UO-31.

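All cell lines were grown in 96-well plates and treated with compound for 48 hours. Here, GI50 denotes the concentration required for 50% inhibition of growth.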 Activity calls are given as the source filed them. Rule as the data show it: active = GI50 up to about 1.1 µM and inactive = higher.

On to `COc1ccc(CC2NC(=O)/C=C/CC(C(C)C3OC3c3ccccc3)OC(=O)C(CC(C)C)OC(=O)C(C)CNC2=O)cc1Cl` (stereo not given), for which the GI50 in assay [1] was < 1e-05 µM (active); in [2], 1.01e-05 µM (active); in [3], < 1e-05 µM (active); in [4] it was < 1e-05 µM (active); in assay [5], 1.21e-05 µM (active); in assay [6] it was 2.36e-05 µM (active). Also, the GI50 was < 1e-05 µM (active) in assay [7]; 3.4e-05 µM (active) in assay [8]; < 1e-05 µM (active) in assay [9]; 2.32e-05 µM (active) in assay [10]; 1.34e-05 µM (active) in assay [11]; 1.34e-05 µM (active) in [12]. Further, the figures for the GI50 in assay [13], in assay [14] and in assay [15] were 2.43e-05 µM (active), 6.68e-05 µM (active) and 1.1e-05 µM (active), respectively.
In the case of `CCC(C=O)P1(=O)OC(C)(C)CN1C(C)(C)C` (stereo not given), the GI50 in [1] is 81.8 µM (inactive); in [2], > 100 µM (inactive); in [4], > 100 µM (inactive); in [5] it was > 100 µM (inactive); in assay [16], 91.4 µM (inactive); in [6], > 100 µM (inactive). In addition, the GI50 in assay [7] is 24.4 µM (inactive); in assay [17] it was 68.1 µM (inactive); in assay [9] it was 20.6 µM (inactive); in [18] it was > 100 µM (inactive); in assay [10] it was > 100 µM (inactive); in [11] it was 32.5 µM (inactive). Besides, the GI50 was > 100 µM (inactive) in [12]; 68.1 µM (inactive) in [14]; 93.3 µM (inactive) in [19]; > 100 µM (inactive) in [15]; > 100 µM (inactive) in assay [20].
With `COc1cc(OC)c2c(=O)cc(-c3ccccc3F)[nH]c2c1`, the GI50 in assay [1] was 48.2 µM (inactive); in assay [2], 61.5 µM (inactive); in assay [3], 88.9 µM (inactive); in [4], 75.9 µM (inactive); in assay [5], 76.4 µM (inactive); in assay [16], 86.5 µM (inactive). The GI50 in assay [6] is 37.5 µM (inactive); in [7] it was 32.9 µM (inactive); in [8], 66.2 µM (inactive); in [17] it was > 100 µM (inactive); in [9], 57 µM (inactive); in assay [18], 73.3 µM (inactive). Also, the GI50 was 51.4 µM (inactive) in [10]; 34.3 µM (inactive) in assay [11]; > 100 µM (inactive) in assay [13]; 91.2 µM (inactive) in [14]; 39.9 µM (inactive) in assay [19]; 52.8 µM (inactive) in assay [15]. Moreover, the GI50 in [20] was 28.6 µM (inactive).
Turning to `COC(=O)C(CCSC)NC(=O)CNC(=O)CSc1nnc(COc2ccc(Cl)cc2)n1-c1ccccc1` (stereo not given), the GI50 was 29.1 µM (inactive) in assay [1]; 7.83 µM (inactive) in assay [3]; 18.2 µM (inactive) in assay [4]; 23 µM (inactive) in assay [5]; 16.6 µM (inactive) in assay [6]; 20.2 µM (inactive) in assay [7]. Moreover, the GI50 was 5.36 µM (inactive) in [8]; 18 µM (inactive) in assay [17]; 19 µM (inactive) in assay [18]; 18.7 µM (inactive) in assay [12]; 17.5 µM (inactive) in [13]; 18.1 µM (inactive) in assay [14]. The GI50 in [19] was 17.6 µM (inactive); in [15], 16.7 µM (inactive); in assay [20], 10.4 µM (inactive).
As to `COc1cc(/C=C2\N=C(C)N(n3c(-c4ccccc4)nc4ccccc4c3=O)C2=O)cc(OC)c1OC`, the GI50 in assay [1], in assay [2], in assay [3], in assay [4], in assay [5] and in [16] was > 100 µM (inactive) throughout. For the same compound, the GI50 in assay [6], in assay [7], in assay [8], in [17], in assay [10] and in [11] was > 100 µM (inactive) each time. In addition, the GI50 in assay [12], in assay [13], in [14], in assay [19], in assay [15] and in [20] was > 100 µM (inactive) throughout.
Turning to `c1ccc(/N=c2/[nH]c3ccccc3s/c2=N/c2ccccc2)cc1`, the GI50 in [1], in assay [2], in [3], in assay [4], in assay [5] and in assay [16] was > 100 µM (inactive) in each case. Further, the GI50 is > 100 µM (inactive) in assay [6]; 73.8 µM (inactive) in [7]; > 100 µM (inactive) in assay [8]; > 100 µM (inactive) in [17]; > 100 µM (inactive) in assay [18]; > 100 µM (inactive) in [10]. Moreover, the GI50 in [11], in assay [12], in [13], in [14], in assay [19] and in assay [15] was > 100 µM (inactive) each time. Besides, the GI50 in assay [20] is > 100 µM (inactive).
As to `CC(=O)NC(=N/N=C1/C(=O)Nc2ccc(C)cc21)NC(C)=O`, the GI50 in assay [1], in assay [2], in [3], in assay [4], in assay [5] and in [16] was > 100 µM (inactive) throughout. Also, the GI50 in assay [6], in assay [7], in assay [8], in [17], in assay [18] and in assay [10] was > 100 µM (inactive) each time. Also, the GI50 in [11] was 52.1 µM (inactive); in assay [13] it was > 100 µM (inactive); in [14], > 100 µM (inactive); in assay [19], > 100 µM (inactive); in [15], > 100 µM (inactive); in [20], 84.1 µM (inactive).
Take `N#CC1=C(S)N(C2OC(CO)C(O)C(O)C2O)C(c2ccccc2)=CC1c1ccccc1` (stereo not given): the GI50 in assay [1] was 59.3 µM (inactive); in [2], > 100 µM (inactive); in assay [3] it was 37.2 µM (inactive); in assay [4], 44.2 µM (inactive); in assay [5] it was > 100 µM (inactive); in assay [6], 46 µM (inactive). Also, the GI50 was 66.1 µM (inactive) in assay [7]; 29.8 µM (inactive) in assay [8]; 52.1 µM (inactive) in assay [17]; 28.3 µM (inactive) in assay [9]; > 100 µM (inactive) in assay [18]; 45.3 µM (inactive) in assay [10]. For the same compound, the GI50 in assay [11] was 34.3 µM (inactive); in [12], 24.7 µM (inactive); in assay [13], 45 µM (inactive); in assay [19] it was > 100 µM (inactive); in assay [15] it was 21.7 µM (inactive); in assay [20] it was > 100 µM (inactive).
In the case of `COC(=O)[C@H](Cc1c[nH]c2ccccc12)NC(=O)c1ccc(CNC(=O)/C=C/c2cccc(Oc3ccccc3)c2)cc1`, the GI50 in assay [1] was > 100 µM (inactive); in [2], > 100 µM (inactive); in [3], 56.1 µM (inactive); in [4], > 100 µM (inactive); in assay [5], > 100 µM (inactive); in assay [16], > 100 µM (inactive). Also, the GI50 in [6] is > 100 µM (inactive); in assay [7], > 100 µM (inactive); in [8], 9.06 µM (inactive); in assay [17] it was 22.8 µM (inactive); in assay [9], > 100 µM (inactive); in assay [18] it was > 100 µM (inactive). The GI50 in [10] was > 100 µM (inactive); in assay [11], > 100 µM (inactive); in assay [13], 29.2 µM (inactive); in [14], > 100 µM (inactive); in assay [19], > 100 µM (inactive); in assay [15], 36.1 µM (inactive). The GI50 in assay [20] is > 100 µM (inactive).
In the case of `O=C1Nc2cc([N+](=O)[O-])ccc2C(=O)N2CCC[C@@H]12`, the GI50 in assay [1], in assay [2], in [3], in assay [4], in [5] and in assay [16] was > 100 µM (inactive) each time. Also, the GI50 in assay [6], in [7], in [8], in assay [9], in assay [18] and in assay [10] was > 100 µM (inactive) throughout. Besides, the GI50 in assay [11], in [12], in [13], in [14], in assay [19] and in assay [15] was > 100 µM (inactive) each time. Further, the GI50 in assay [20] is > 100 µM (inactive).
Consider `CN(C)C(=S)N/N=C\C=N/NC(=S)N(C)C`, for which the GI50 in [1] was 0.643 µM (active); in [2], 0.447 µM (active); in assay [4], 0.246 µM (active); in assay [5] it was 0.155 µM (active); in assay [16], 0.479 µM (active); in assay [6], 0.47 µM (active). The GI50 in assay [7] was 0.525 µM (active); in assay [17], 0.182 µM (active); in assay [9], 0.0295 µM (active); in assay [18], 31.8 µM (inactive); in assay [10], 0.175 µM (active); in assay [11], 0.158 µM (active). Moreover, the GI50 in [12] is 6.97 µM (inactive); in assay [13] it was 0.552 µM (active); in assay [14] it was 0.344 µM (active); in [19] it was 2.53 µM (inactive); in assay [15] it was 0.802 µM (active); in assay [20], 0.237 µM (active).
